In EP1306084A1, “Compositions for the control of parasitic infestations in fish” (Alpharma AS, priority 1998, dated 1999):

Assays:
sea lice = assay: Injection of hexaflumuron in furunculosis vaccine formulations, sea lice counts after sea water transfer (Example 7); assay type: in vivo, salmon (Salmo salar); settings: for average number of lice: control group 19.2
Experimental: The treatment dosage was 9 mg hexaflumuron per kg fish per day for 10 days. This is indicated by "Groups/Timepoints" in the figure; • Figure 2 relates to the trial in Example 2 that was carried out on Atlantic salmon (Salmo salar). […] The treatment dosage varied between 3 - 9 mg hexaflumuron and 9- 12 mg fluazuron per kg fish per day for 7 days. This is indicated by "Groups/Timepoints" in the diagram. […] The treated groups are compared to an untreated control group. The treatment dosage was 4 mg hexaflumuron per kg fish per day for 5 days. This is indicated by "Groups/Timepoints" in the figure. Cage 2 = controls, Cage 4-6 = treated groups, 16.6.97 = time point for sea transfer and 5.8.97= controls treated by bathing with deltamethrin; • Figure 4 relates to the trial described in Example 5, which was carried out on sea trout (Salmo trutta). […] The treated groups are compared with an untreated control group. The dosage for oral treatment was 4 mg hexaflumuron per kilo fish per day for 5 days, and 5 ppm hexaflumuron as a 30 minute bath treatment. This is indicated by "Groups/Timepoints" in the figure. Cage 1.4 = Controls, cage 1.3 = Oral treatment, cage 1.2 = Bath treatment. […] The treated groups are compared with an untreated control group, and one group that has been treated orally with teflubenzuron (10 mg/kg of teflubenzuron per kg fish per day for 7 days). The dosage for oral treatment was 5.6 mg hexaflumuron per kg fish per day for 7 days, and 5 ppm hexaflumuron as a 30 minute bath treatment. […] End of treatment: 22.10.97, Sea transfer: 23.10.97. T1 = 3 weeks post end of treatment, T2 = 5 weeks post end of treatment, T3 = 9 weeks post end of treatment, T4 = 12 weeks post end of treatment; • Figure 6 relates to the trial in Example 6 at time points 4-6, with the same trial parameters as for Figure 5. T5 = 15 weeks post end of treatment, T6 = 17 weeks post end of treatment. Cage 3 and 4 were treated by bath with deltamethrin after sea lice counting at T4 (12.01.98); • Figure 7 relates to the trial described in Example 7 where salmon were injected on 17.12.97 with two formulations (groups L and R, respectively) of hexaflumuron and a vaccine formulation without hexaflumuron (control). […] The vaccinated fish was transferred to sea water on 09.01.98; • Figure 8 summarises the trial of Example 8 where salmon smolts were injected with 9 different active substances on 08.07.98. Only results for Moxidectin (Mox.), Lufenuron (Luf.) and hexaflumuron in Apoject 1-Fural (Hex.Apo) and in animal oil (Hex.oil) are shown, and • Figure 9 summarises the trial described in Example 10 where salmon were injected on 03.12.97 with 3 different formulations of hexaflumuron (Hexa 1, Hexa 2 and Hexa 3). The fish were transferred to sea water at T0.
About 80 salmon (Salmo salar) at an average weight of about 80 grams were divided into two groups and injected with two different formulations of hexaflumuron at a dosage of about 50 mg/kg. Both formulations were prepared based upon a vaccine against furunculosis containing inactivated cells of Aeromonas salmonicida subsp. salmonicida. Hexaflumuron was mixed/formulated into the vaccine in two different manners to study the effect of the formulation on the depot effect in the fish and on the stability characteristics of the vaccine emulsions.
The fish were dosed (injected) while they were in freshwater and 23 days after the administration they were transferred to sea water (mini-cages). In parallel with the two groups, a third group comprising 40 fish of the same origin and size was vaccinated with a conventional vaccine without hexaflumuron. This group was kept in the same tank (freshwater) and cage (sea water) as the "hexaflumuron injected" groups and served as negative control/reference group in respect of sea lice infestations. Prior to the start of the trial, the groups were marked by fin cutting. The water temperature varied between 3.8 and 16.0°C throughout the trial. […]

Anilocra physodes = assay: Oral hexaflumuron against infestation with a parasitic isopod (Example 9); assay type: in vivo, Sea bass (Dicentrarchus labrax)
Experimental: In this trial, hexaflumuron was administered orally in order to test the effect against infestations with the parasitic isopod Anilocra physodes in Sea bass (Dicentrarchus labrax).
150,000 Sea bass (Dicentrarchus labrax) having an average weight of 2 grams were transferred from a hatchery facility and distributed into 5 cages each containing 30,000 fish. The trial was carried out in a food fish facility in the Mediterranean where the sea water temperature varied in the range of 15.0-25.0°C throughout the trial period.
Fish in four cages were fed medicated feed at an amount corresponding to 0.5% of the total biomass per day for 6 days, corresponding to 10 mg hexaflumuron/kg fish per day. One week after the medication and subsequently every three weeks the number of parasites on the fish was monitored.

[1] = Adverse or side effects observed over all trials; assay type: in vivo, fish; settings: injection, bath solution or oral treatment; all dosages examined
Text: This is in regard to all the dosages that have been examined and the various administration methods which have been used.

O=C(NC(=O)c1c(F)cccc1F)Nc1cc(Cl)c(OC(F)(F)C(F)F)c(Cl)c1 [hexaflumuron]
average number of lice (sea lice; T8, first-named treated group (formulation)): 4.8 | average number of lice (sea lice; T8, second-named treated group (formulation)): 1.8 | number of sea lice versus control group (sea lice; T9 and T10, treated groups): significant differences | number of lice versus control group (sea lice; T11, after ALPHA MAX bath of all groups): significantly less lice | excellent protection against sea lice infestation after sea water transfer (sea lice; injection about 50 mg/kg): 7 months | partially protective effect after sea water transfer (sea lice; injection about 50 mg/kg): ≤ 10.5 months | time after sea water transfer until sea lice were first recorded (T8) (sea lice; injection about 50 mg/kg, two treated groups, control had lice from T5 (126 days)): 215 days | parasites found in the treated groups (Anilocra physodes; one week after the medication period (10 mg/kg fish per day, 6 days), control 0.1 louse): no parasites were found | period of effect against Anilocra physodes after medication (Anilocra physodes; oral 10 mg/kg fish per day for 6 days): about 3 weeks | average parasites in the treated groups (Anilocra physodes; three weeks after the medication period, control 0.4 louse): 0.15 louse | adverse or side effects [1]: No adverse or side effects have been observed
